Data on 18 compounds can be found in publication PMC10603954, “Bacterial Tyrosinase Inhibition, Hemolytic and Thrombolytic Screening, and In Silico Modeling of Rationally Designed Tosyl Piperazine-Engrafted Dithiocarbamate Derivatives” (Biomedicines, 2023).

Each structure is given as a SMILES string. Where two headings read alike, the source gives them in different places.

The subject of data set [1] is clot. The data set can be described thus: Thrombolytic activity (clot lysis). The arrangement: species or system albino mice. The following applies: 100 µL sample in DMSO, 37 °C, 3 h.
From the text: Blood samples were collected from albino mice and relocated to numerous cleaned and weighed-up eppendorf tubes. […] Blood serum was cast-off from these tubes and weighed in the eppendorf tubes to calculate the preliminary weight of the clot (clot weight = weight of the eppendorf with the clot minus the weight of the empty eppendorf). […] In this methodology, ABTS was used as a positive control, while water was used as a negative control. Serum was again removed and weighed in the eppendorf tubes to measure clot lysis.
The target of data set [2] is bacterial tyrosinase (Bacillus subtilis NA2). The arrangement: method as in PMID 36142889. The note with it: reference standard; read-out: IC50 (µM) Tyrosinase Inhibition; cited from earlier work.
Data set [3] deals with Tyrosinase. The following applies: Figure 3; no reference given; read-out: Tyrosinase inhibtors IC50; cited from earlier work.
Data set [4] deals with bacterial tyrosinase (Bacillus subtilis NA2). The data set can be described thus: Tyrosinase inhibition, spectrophotometric L-Dopa assay. The class given is biochemical. The following applies: for IC50: bacterial tyrosinase, L-Dopa substrate, PBS pH 6.8; for optical density at varied incubation times: incubation 10, 20 and 30 min (Figure 6).
Method: IC50 values were obtained using a spectrophotometer assay. The protocol involved the addition of 2 mL of 1/2 mM L-Dopa in a 67.0 mM PBS (phosphate buffer saline) solution of pH 6.8 to the 800 µL solution of target molecules in DMSO. A total of 0.1 mL of the enzyme solution (tyrosinase) was dissolved in this mixture, and the starting rate of linear increase was measured in the optical density after 10, 20, and 30 min of incubation time, respectively. Thus, optical density increases or decreases with the presence of dopachrome.
The inhibition potential of these derivatives was also studied at varied incubation times.
Data set [5] is described as follows: Hemolytic activity. Type of data set: cell-based, albino mice. The following applies: albino, mouse, red blood cells (RBC pellet from blood), pH 7.4; 20 µL sample (10 mg/mL) with 180 µL RBC, 37 °C, half an hour.
Method: A blood sample of 5 mL of volume from albino mice was taken and subjected to centrifugation at 1000 rpm for 5 min. RBC pellets were secluded and splashed 3–4 times using chilled buffer solutions that had pH values of 7.4, such as the phosphate buffer saline (PBS). A solution sample in a volume of 20 µL (10 mg/mL) was taken and added to a 180 µL RBC pellet. […] A sample tube was taken from the incubator and lowered to room temperature in an ice bath for 5 min. The sample was again centrifuged at 13,000 rpm for 5 min. A total of 100 µL of supernatant was collected from each tube and diluted with the ice-cold phosphate buffered saline.

As usually defined, the IC50 is the concentration needed to halve the response being measured. Broadly, the melting point is the temperature, or range, at which the solid turns liquid.

For `CCn1c(=NN=c2sc3cc(S(=O)(=O)O)ccc3n2CC)sc2cc(S(=O)(=O)O)ccc21` [ABTS, 2,2′-azino-bis(3-ethylbenzothiazoline-6-sulfonic acid), reference compound], the “% Thrombolysis” value in data set [1] was determined as 80%.

With `O=C1O[C@H]([C@@H](O)CO)C(O)=C1O` [Ascorbic Acid], the half-maximal inhibitory concentration (IC50) in data set [2] is 11.5 ± 1 µM.

Turning to `O=C(c1ccccc1)N1CCN(Cc2ccc(F)cc2)CC1` [Compound 2d], in data set [3], the IC50 is 13300 nM.

Turning to `O=C(c1cccc(Cl)c1[N+](=O)[O-])N1CCN(Cc2ccc(F)cc2)CC1` [Compound 2e], in data set [3], the 50% inhibitory concentration (IC50) was 180 nM.

In the case of `O=S(=O)(c1ccc(CN2CCN(c3ccccc3)CC2)cc1)N1CCCCC1` [Compound 2f], the half-maximal inhibitory concentration (IC50) in data set [3] is 60 nM.

For the compound `Cc1ccc(NC(=O)CCCN2CCN(C/C=C/c3ccccc3)CC2)c(C)c1` [Compound 2g], the IC50 in data set [3] is 10 nM.

As to `COc1cccc(/C=C/C(=O)N2CCN(c3ccc(F)c(Cl)c3)CC2)c1Cl` [Compound 2h], in data set [3], the half-inhibitory concentration (IC50) is 120 nM.

Regarding `Cc1ccc(S(=O)(=O)N2CCN(C(=S)SCC(=O)Nc3ccccc3)CC2)cc1` [Compound 4a, 2-Oxo-2-(phenylamino)ethyl 4-tosylpiperazine-1-carbodithioate], in data set [4], the IC50 was 34.8 ± 0.99 µM and the “optical density at varied incubation times” value (“optical density” below) is recorded as “linear decrease in optical density”. In addition, in data set [1], the “% Thrombolysis” value is given as 62.3 ± 0.41%. The compound also had a hemolysis at 0.5 h, 1 mg/mL in data set [5] of 0.55 ± 0.03%.

Take `Cc1ccc(S(=O)(=O)N2CCN(C(=S)SCC(=O)Nc3ccccc3Cl)CC2)cc1` [Compound 4b, 2-((2-Chlorophenyl)amino)-2-oxoethyl 4-tosylpiperazine-1-carbodithioate]: the melting point amounted to 180 °C. In data set [4], inhibition was half-maximal at 8.01 ± 0.11 µM (IC50) and the “optical density” value is given as “highest optical density”. The “% Thrombolysis” value in data set [1] was found to be 54.43 ± 0.23%. Also, the hemolysis at 0.5 h, 1 mg/mL in data set [5] came out at 0.29 ± 0.01%.

`Cc1ccc(S(=O)(=O)N2CCN(C(=S)SCC(=O)Nc3ccccc3F)CC2)cc1` [Compound 4c, 2-((2-Fluorophenyl)amino)-2-oxoethyl 4-tosylpiperazine-1-carbodithioate] came in with a half-maximal inhibitory concentration (IC50) in data set [4] of 8.1 ± 0.3 µM. Further, the “% Thrombolysis” value in data set [1] came out at 56.76 ± 0.15%. In data set [5], this compound had a hemolysis at 0.5 h, 1 mg/mL of 6.6 ± 0.37%.

For the compound `COc1ccc(NC(=O)CSC(=S)N2CCN(S(=O)(=O)c3ccc(C)cc3)CC2)cc1` [Compound 4d, 2-((4-Methoxyphenyl)amino)-2-oxoethyl 4-tosylpiperazine-1-carbodithioate], the melting point amounted to 175 °C. In data set [4], this compound showed an IC50 of 6.88 ± 0.11 µM. In addition, in data set [1], the “% Thrombolysis” value is 52.4 ± 0.2%. The compound also gave a hemolysis at 0.5 h, 1 mg/mL in data set [5] of 15.6 ± 0.5%.

In data set [4], `Cc1ccc(S(=O)(=O)N2CCN(C(=S)SCC(=O)Nc3ccc(Cl)cc3)CC2)cc1` [Compound 4e, 2-((4-Chlorophenyl)amino)-2-oxoethyl 4-tosylpiperazine-1-carbodithioate] displayed an IC50 of 11.1 ± 0.4 µM. In addition, the “% Thrombolysis” value in data set [1] was determined as 67.3 ± 0.2%. Moreover, the hemolysis at 0.5 h, 1 mg/mL in data set [5] was 7.5 ± 0.4%.

The compound `Cc1ccc(S(=O)(=O)N2CCN(C(=S)SCC(=O)Nc3ccc(F)cc3)CC2)cc1` [Compound 4f, 2-((4-Fluorophenyl)amino)-2-oxoethyl 4-tosylpiperazine-1-carbodithioate] registered an IC50 in data set [4] of 10.3 ± 0.26 µM. Besides, the “% Thrombolysis” value in data set [1] was determined as 56.53 ± 0.55%. Also, the hemolysis at 0.5 h, 1 mg/mL in data set [5] stood at 4.53 ± 0.35%.

As for `Cc1ccc(S(=O)(=O)N2CCN(C(=S)SCC(=O)Nc3ccc(C)cc3C)CC2)cc1` [Compound 4g, 2-((2,4-Dimethylphenyl)amino)-2-oxoethyl 4-tosylpiperazine-1-carbodithioate], the melting point amounted to 185 °C. Also, in data set [4], the half-maximal inhibitory concentration (IC50) came to 7.24 ± 0.15 µM and the “optical density” value is recorded as “linear decrease in optical density”. Besides, the “% Thrombolysis” value in data set [1] was determined as 55.26 ± 0.15%. This compound also had a hemolysis at 0.5 h, 1 mg/mL in data set [5] of 1.53 ± 0.35%.

`COc1ccc(OC)c(NC(=O)CSC(=S)N2CCN(S(=O)(=O)c3ccc(C)cc3)CC2)c1` [Compound 4h, 2-((2,5-Dimethoxyphenyl)amino)-2-oxoethyl 4-tosylpiperazine-1-carbodithioate]: the melting point turned out to be 190 °C. In addition, in data set [4], the IC50 was 13.25 ± 0.11 µM and the “optical density” value is “linear decrease in optical density”. Moreover, in data set [1], the “% Thrombolysis” value stood at 60.83 ± 0.14%. In data set [5], this compound gave a hemolysis at 0.5 h, 1 mg/mL of 11.3 ± 0.22%.

`Cc1ccc(S(=O)(=O)N2CCN(C(=S)SCC(=O)Nc3ccc(Cl)c(Cl)c3)CC2)cc1` [Compound 4i, 2-((3,4-Dichlorophenyl)amino)-2-oxoethyl 4-tosylpiperazine-1-carbodithioate]: in data set [4], 19.2 ± 0.47 µM corresponded to half-maximal inhibition (IC50) and the “optical density” value was “linear decrease in optical density”. In addition, the “% Thrombolysis” value in data set [1] was 54.38 ± 0.53%. In data set [5], this compound displayed a hemolysis at 0.5 h, 1 mg/mL of 12.8 ± 0.35%.

`Cc1ccc(S(=O)(=O)N2CCN(C(=S)SCC(=O)Nc3ccc(C)c(C)c3)CC2)cc1` [Compound 4j, 2-((3,4-Dimethylphenyl)amino)-2-oxoethyl 4-tosylpiperazine-1-carbodithioate]: in data set [4], the midpoint of inhibition, the IC50, lay at 11.11 ± 0.1 µM and the “optical density” value is on record as “linear decrease in optical density”. Also, the “% Thrombolysis” value in data set [1] turned out to be 56.6 ± 0.23%. The compound also registered a hemolysis at 0.5 h, 1 mg/mL in data set [5] of 2.56 ± 0.3%.

`O=c1cc(CO)occ1O` [Kojic Acid, Kojic acid, reference compound] showed an IC50 in data set [4] of 30.3 ± 0.75 µM.
